{"source": "paper PMC9186351", "about": "“Discovery of N-quinazolinone-4-hydroxy-2-quinolone-3-carboxamides as DNA gyrase B-targeted antibacterial agents” (Journal of Enzyme Inhibition and Medicinal Chemistry, 2022)", "key": {"[1]": {"assay": "Mouse microsomal stability assay", "assay_type": "in vitro ADME", "conditions": "mouse, microsomes, pH 7.4", "method": "The mouse liver microsomes were purchased from BioreclamationIVT and stored at −80 °C. The working solutions (0.2 mM) of the control compound, i.e. dextromethorphan, and the test compound dissolved in DMSO were prepared. Terfenadine (5 ng/mL) and tolbutamide (10 ng/mL) dissolved in acetonitrile were used as two quenching solutions. NADPH was dissolved in the phosphate buffer (50 mM K2HPO4, pH 7.4) at 5 mM. The mouse liver microsomes were thawed at 37 °C. The concentration of the stock solution was 20 mg/mL. The working solution (0.629 mg/mL) was prepared by dilution in phosphate buffer.\nThe working solution of the control/test compound (1.5 µL) was mixed with the liver microsome working solution (238.5 µL) in a 96-well plate and pre-incubated at 37 °C for 5 min. The 5 mM NADPH working solution (60 µL) was added to the solution to initiate the metabolic reaction. At each time point (0, 5, 15, 30, and 60 for the control/test compound), 30 µL of the reaction mixture was sampled and moved to 300 µL of quenching solutions. When the sampling was done, each sample was centrifuged at 4000 rpm at 4 °C for 15 min. The supernatant was analysed with the same HPLC system as the plasma stability assay. The residues (%) of the test/control compound along with the incubation time were calculated based on which the half-life (t1/2) value was determined."}, "in vitro": {"assay": "in vitro", "assay_type": "in vitro ADME, mouse", "conditions": "mouse, plasma", "method": "The mouse plasma was purchased from Charles River and stored at −20 °C. The stock solution of the test compound dissolved in DMSO (50 mM) was prepared and diluted to obtain a working solution at the concentration of 0.2 mM. The working solution of the control compound, i.e. propantheline, was similarly prepared (0.2 mM). Terfenadine (5 ng/mL) and tolbutamide (10 ng/mL) dissolved in acetonitrile were used as two quenching solutions.\nThe mouse plasma was pre-warmed at 37 °C for 15 min. The working solution of the test/control compound (2 µL) was then added to the mouse plasma (398 µL) in a 96-well plate. Next, 30 µL of the reaction mixture was sampled and moved to 300 µL of quenching solutions at each time point: 0, 5, 15, 30, 60, and 120 min for the control compound and 0, 15, 30, 60, and 120 min for the test compound. When the sampling was done, each sample was centrifuged at 4000 rpm at 4 °C for 15 min. Then, 100 µL of the supernatant was removed and mixed with 100 µL of distilled water for LC-MS/MS analysis with Shimadzu HPLC system and the AB Sciex API 4000 QTRAP instrument. The remaining compound (%) after incubation in plasma versus the incubation time was plotted. The half-life (t1/2) value of the compound was determined via linear regression from the plot."}, "HepG2 cells": {"test_system": "HepG2 cells", "assay": "Cytotoxicity, SRB assay, HepG2", "assay_type": "cell-based, human", "conditions": "72-h treatment (footnote), read-out: In vitro cytotoxicity CC50 (μM, mean ± SD)", "method": "(§1) Cytotoxicity in terms of CC50 was determined by the SRB assay according to the protocol described in our previous publication.[16] Briefly, human HUVECs or HepG2 cells were seeded in the wells of 96-well plates at a concentration of 1 × 10^5 cells per well and incubated at 37 °C for 24 h. […] The cells were fixed with 10% trichloroacetic acid (w/v) at 4 °C for 1 h, washed five times with distilled water, and stained with 0.4% SRB solution at room temperature for another 20 min. The cells were then washed five times with 1% acetic acid and air-dried. The protein-bound dye was dissolved in 10 mM Tris-base solution and shaken for 5 min. The optical density (OD) was measured at 540 nm using a microplate reader to estimate the cell viability (%). With the viability values (%) of the cells treated by the compound at different concentrations as input, the CC50 value was determined by the non-linear regression with normalised dose-response fit implemented in GraphPad Prism version 5 software (GraphPad Software Inc., La Jolla, CA). The experiment was performed in duplicate, and paclitaxel was used as the positive drug for this assay."}, "[2]": {"assay": "Cytotoxicity, SRB assay, HepG2", "assay_type": "cell-based, human", "conditions": "human, HepG2 cells, 72-h treatment (footnote), read-out: In vitro cytotoxicity CC50 (μM, mean ± SD)", "method": "as §1"}}}
{"molecule": "CCCCCc1nc2ccccc2c(=O)n1NC(=O)c1c(O)c2ccccc2n(CC)c1=O", "note": "[f1, N-(4-oxo-2-pentylquinazolin-3(4H)-yl)-1-ethyl-4-hydroxy-2-oxo-1,2-dihydroquinoline-3-carboxamide]", "values": [{"measurement": "half-life at 1 µM", "setting": "[1]", "result": 24.5, "unit": "min"}, {"measurement": "half-life at 1 µM", "setting": "in vitro", "result": "> 373", "unit": "min"}, {"measurement": "CC50", "setting": "HepG2 cells", "result": "49.6 ± 0.2", "unit": "µM"}, {"measurement": "CC50 at 72 h", "setting": "[2]", "result": "~50", "unit": "µM"}]}
